In ChEMBL document CHEMBL5360570, “Discovery of pyrazolo[3,4-b]pyridine derivatives as novel and potent Mps1 inhibitors for the treatment of cancer” (Eur J Med Chem, 2023):

Experiments:
[1] = molecular target: T1, Dual specificity protein kinase TTK (Homo sapiens, UniProt P33981); assay: Inhibition of Mps1 (unknown origin) pretreated for 10 mins followed by substrate addition and measured after 60 mins in presence of ATP by ADP-glo kinase assay
T1 sequence (P33981 whole entry): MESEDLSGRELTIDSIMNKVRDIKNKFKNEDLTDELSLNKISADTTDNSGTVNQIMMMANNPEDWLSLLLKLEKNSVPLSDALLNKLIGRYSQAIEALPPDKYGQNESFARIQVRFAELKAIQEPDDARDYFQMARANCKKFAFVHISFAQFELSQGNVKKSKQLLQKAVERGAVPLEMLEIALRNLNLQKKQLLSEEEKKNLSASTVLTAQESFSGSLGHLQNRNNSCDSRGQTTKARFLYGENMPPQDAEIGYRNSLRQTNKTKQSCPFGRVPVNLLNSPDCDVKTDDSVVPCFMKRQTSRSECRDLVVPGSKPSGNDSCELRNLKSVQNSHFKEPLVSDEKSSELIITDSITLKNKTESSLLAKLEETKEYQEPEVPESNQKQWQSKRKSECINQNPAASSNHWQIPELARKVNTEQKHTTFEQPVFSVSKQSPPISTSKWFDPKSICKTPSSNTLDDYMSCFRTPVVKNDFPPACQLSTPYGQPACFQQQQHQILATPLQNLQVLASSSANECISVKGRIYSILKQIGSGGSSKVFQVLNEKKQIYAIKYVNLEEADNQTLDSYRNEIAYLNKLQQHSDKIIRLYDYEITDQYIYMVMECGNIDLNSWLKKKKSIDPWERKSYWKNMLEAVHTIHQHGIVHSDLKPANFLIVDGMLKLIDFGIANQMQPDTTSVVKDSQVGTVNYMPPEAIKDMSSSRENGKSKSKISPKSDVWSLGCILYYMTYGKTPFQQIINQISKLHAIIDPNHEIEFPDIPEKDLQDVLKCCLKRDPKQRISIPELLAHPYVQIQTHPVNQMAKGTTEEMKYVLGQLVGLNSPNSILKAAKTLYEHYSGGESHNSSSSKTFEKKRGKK

[2] = Tmax in Sprague-Dawley rat at 2 mg/kg, iv measured upto 24 hrs by LC-MS/MS analysis; assay type: ADME, organism-based; conditions: in vivo
ROS1-GOPC (Homo sapiens) = ROS1-GOPC (Homo sapiens) (UniProt P08922+Q9HD26); assay: Inhibition of ROS1-GOPC (unknown origin) assessed as residual activity at 1 uM relative to control; assay type: protein assay
[3] = Metabolic stability in human liver microsome assessed as half life preincubated for 10 mins followed by NADPH addition and measured upto 60 mins by LC-MS/MS analysis; assay type: ADME; conditions: liver microsomes, time < 70 min
[4] = system: ALK tyrosine kinase receptor (Homo sapiens), Q9UM73 [G1202R]; assay: Inhibition of ALK G1202R mutant (unknown origin) assessed as residual activity at 1 uM relative to control
[5] = molecular target: Receptor-type tyrosine-protein kinase FLT3 (Homo sapiens) (UniProt P36888); assay: Inhibition of FLT3 (unknown origin) assessed as residual activity at 1 uM relative to control
MDA-MB-468 = assay: Antitumor activity against human MDA-MB-468 cells xenografted in BALB/c nude mouse assessed as tumor growth inhibition at 30 mg/kg, iv administered once daily for 21 days; assay type: functional; conditions: MDA-MB-468, 504 h, time 21 day, read-out: TGI
[6] = molecular target: Calcium/calmodulin-dependent protein kinase type II subunit alpha (Homo sapiens) (UniProt Q9UQM7); assay: Inhibition of CaMK2alpha (unknown origin) assessed as residual activity at 1 uM relative to control
[7] = system: ALK tyrosine kinase receptor (Homo sapiens), Q9UM73 [R1275Q]; assay: Inhibition of ALK R1275Q mutant (unknown origin) assessed as residual activity at 1 uM relative to control
[8] = molecular target: Serine/threonine-protein kinase SIK1 (Homo sapiens) (UniProt P57059); assay: Inhibition of SIK1 (unknown origin) assessed as residual activity at 1 uM relative to control
ALK-TPM1 (Homo sapiens) = ALK-TPM1 (Homo sapiens) (UniProt Q9UM73+P09493); assay: Inhibition of ALK-TPM1 (unknown origin) assessed as residual activity at 1 uM relative to control; assay type: protein assay
[9] = Cmax in Sprague-Dawley rat at 2 mg/kg, iv measured upto 24 hrs by LC-MS/MS analysis; assay type: ADME, organism-based; set-up: time < 24 hrs, dose 2 mg/kg, route iv; conditions: in vivo
[10] = Metabolic stability in human liver microsome assessed as intrinsic clearance preincubated for 10 mins followed by NADPH addition and measured upto 60 mins by LC-MS/MS analysis; assay type: ADME; conditions: liver microsomes, time < 70 min, read-out: CLH
[11] = molecular target: Serine/threonine-protein kinase SIK2 (Homo sapiens) (UniProt Q9H0K1); assay: Inhibition of SIK2 (unknown origin) assessed as residual activity at 1 uM relative to control
ALK-KLC1 (Homo sapiens) = ALK-KLC1 (Homo sapiens) (UniProt Q9UM73+Q07866); assay: Inhibition of ALK-KLC1 (unknown origin) assessed as residual activity at 1 uM relative to control; assay type: protein assay
[12] = molecular target: Serine/threonine-protein kinase MARK1 (Homo sapiens) (UniProt Q9P0L2); assay: Inhibition of MARK1 (unknown origin) assessed as residual activity at 1 uM relative to control
[13] = Metabolic stability in human microsome assessed as intrinsic clearance preincubated for 10 mins followed by NADPH addition and measured upto 60 mins by LC-MS/MS analysis; assay type: ADME; conditions: microsomes, time < 70 min
[14] = Clearance in Sprague-Dawley rat at 2 mg/kg, iv measured upto 24 hrs by LC-MS/MS analysis; assay type: ADME, organism-based; conditions: in vivo
[15] = molecular target: Tyrosine-protein kinase FRK (Homo sapiens) (UniProt P42685); assay: Inhibition of PTK5 (unknown origin) assessed as residual activity at 1 uM relative to control
[16] = molecular target: Activated CDC42 kinase 1 (Homo sapiens) (UniProt Q07912); assay: Inhibition of ACK1 (unknown origin) assessed as residual activity at 1 uM relative to control
[17] = molecular target: Tyrosine-protein kinase JAK3 (Homo sapiens) (UniProt P52333); assay: Inhibition of JAK3 (unknown origin) assessed as residual activity at 1 uM relative to control
[18] = Metabolic stability in human liver microsome assessed as parent compound remaining preincubated for 10 mins followed by NADPH addition and measured at 15 mins by LC-MS/MS analysis; assay type: ADME; conditions: liver microsomes, time 25 min, read-out: Stability
ALK-KIF5B (Homo sapiens) = ALK-KIF5B (Homo sapiens) (UniProt Q9UM73+P33176); assay: Inhibition of ALK-KIF5B (unknown origin) assessed as residual activity at 1 uM relative to control; assay type: protein assay
[19] = system: ALK tyrosine kinase receptor (Homo sapiens), Q9UM73 [L1196M]; assay: Inhibition of ALK L1196M mutant (unknown origin) assessed as residual activity at 1 uM relative to control
[20] = molecular target: Macrophage colony-stimulating factor 1 receptor (Homo sapiens) (UniProt P07333); assay: Inhibition of FMS (unknown origin) assessed as residual activity at 1 uM relative to control
[21] = system: ALK tyrosine kinase receptor (Homo sapiens), Q9UM73 [G1269S]; assay: Inhibition of ALK G1269S mutant (unknown origin) assessed as residual activity at 1 uM relative to control

ALK-KLC1 (Homo sapiens), sequence (Q07866 whole entry, looked up): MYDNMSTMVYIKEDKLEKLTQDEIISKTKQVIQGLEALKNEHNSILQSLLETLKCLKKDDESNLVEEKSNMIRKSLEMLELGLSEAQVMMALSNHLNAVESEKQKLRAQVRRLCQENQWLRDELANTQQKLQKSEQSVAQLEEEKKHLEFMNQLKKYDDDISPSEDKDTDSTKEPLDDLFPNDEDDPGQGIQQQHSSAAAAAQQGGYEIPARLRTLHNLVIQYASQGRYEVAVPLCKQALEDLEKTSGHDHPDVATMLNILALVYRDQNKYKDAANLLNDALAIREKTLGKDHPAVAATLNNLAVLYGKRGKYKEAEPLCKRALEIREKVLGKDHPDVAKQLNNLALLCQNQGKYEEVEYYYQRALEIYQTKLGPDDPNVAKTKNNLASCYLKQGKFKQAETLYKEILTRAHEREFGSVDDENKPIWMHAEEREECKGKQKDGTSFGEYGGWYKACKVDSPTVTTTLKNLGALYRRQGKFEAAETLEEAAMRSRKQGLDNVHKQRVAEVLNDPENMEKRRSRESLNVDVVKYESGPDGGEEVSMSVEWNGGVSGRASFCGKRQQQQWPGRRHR
ALK-KLC1 (Homo sapiens), sequence (Q9UM73 whole entry, looked up): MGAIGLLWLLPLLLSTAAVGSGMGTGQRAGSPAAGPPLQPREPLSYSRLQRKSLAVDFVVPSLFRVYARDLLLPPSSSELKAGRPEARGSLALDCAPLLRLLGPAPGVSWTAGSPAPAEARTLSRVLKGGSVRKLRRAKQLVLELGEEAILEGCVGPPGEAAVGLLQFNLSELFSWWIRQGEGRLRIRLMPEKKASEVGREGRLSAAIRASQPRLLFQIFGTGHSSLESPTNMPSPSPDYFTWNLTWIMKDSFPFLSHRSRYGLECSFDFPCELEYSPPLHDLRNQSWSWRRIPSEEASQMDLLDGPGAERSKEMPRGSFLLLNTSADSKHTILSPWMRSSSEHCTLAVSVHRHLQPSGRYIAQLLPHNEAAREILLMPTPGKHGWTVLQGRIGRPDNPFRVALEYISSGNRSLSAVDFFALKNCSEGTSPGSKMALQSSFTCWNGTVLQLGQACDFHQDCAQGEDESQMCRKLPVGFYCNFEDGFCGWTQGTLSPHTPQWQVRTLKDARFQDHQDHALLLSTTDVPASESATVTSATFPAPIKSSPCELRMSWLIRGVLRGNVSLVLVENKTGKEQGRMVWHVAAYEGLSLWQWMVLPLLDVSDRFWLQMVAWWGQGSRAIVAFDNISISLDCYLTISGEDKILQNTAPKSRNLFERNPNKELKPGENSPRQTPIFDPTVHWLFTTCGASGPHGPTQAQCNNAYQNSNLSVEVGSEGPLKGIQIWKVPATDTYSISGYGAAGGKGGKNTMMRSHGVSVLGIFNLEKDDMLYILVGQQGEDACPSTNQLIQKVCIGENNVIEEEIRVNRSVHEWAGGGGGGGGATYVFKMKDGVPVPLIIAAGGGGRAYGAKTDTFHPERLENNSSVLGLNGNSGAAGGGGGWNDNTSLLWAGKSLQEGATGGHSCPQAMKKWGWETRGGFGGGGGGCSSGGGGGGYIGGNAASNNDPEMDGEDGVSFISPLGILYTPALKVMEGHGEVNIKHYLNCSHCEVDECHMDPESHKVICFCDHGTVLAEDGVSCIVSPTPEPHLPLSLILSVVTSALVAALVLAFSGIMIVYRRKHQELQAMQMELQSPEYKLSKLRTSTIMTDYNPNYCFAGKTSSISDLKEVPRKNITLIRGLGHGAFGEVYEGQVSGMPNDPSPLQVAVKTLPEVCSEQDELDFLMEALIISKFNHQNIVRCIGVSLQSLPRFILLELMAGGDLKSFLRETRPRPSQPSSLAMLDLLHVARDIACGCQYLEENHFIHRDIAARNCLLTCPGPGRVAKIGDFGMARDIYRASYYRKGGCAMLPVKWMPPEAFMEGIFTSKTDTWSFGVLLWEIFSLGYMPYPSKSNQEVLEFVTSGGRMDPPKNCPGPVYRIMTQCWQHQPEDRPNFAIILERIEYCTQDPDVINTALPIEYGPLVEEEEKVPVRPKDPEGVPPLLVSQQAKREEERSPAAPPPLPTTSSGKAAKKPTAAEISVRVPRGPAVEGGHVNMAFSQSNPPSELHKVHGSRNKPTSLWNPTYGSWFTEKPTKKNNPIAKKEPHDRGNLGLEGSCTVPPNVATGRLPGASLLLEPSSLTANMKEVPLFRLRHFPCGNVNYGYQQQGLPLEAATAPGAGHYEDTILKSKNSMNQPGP
ALK-KIF5B (Homo sapiens), sequence (P33176 whole entry, looked up): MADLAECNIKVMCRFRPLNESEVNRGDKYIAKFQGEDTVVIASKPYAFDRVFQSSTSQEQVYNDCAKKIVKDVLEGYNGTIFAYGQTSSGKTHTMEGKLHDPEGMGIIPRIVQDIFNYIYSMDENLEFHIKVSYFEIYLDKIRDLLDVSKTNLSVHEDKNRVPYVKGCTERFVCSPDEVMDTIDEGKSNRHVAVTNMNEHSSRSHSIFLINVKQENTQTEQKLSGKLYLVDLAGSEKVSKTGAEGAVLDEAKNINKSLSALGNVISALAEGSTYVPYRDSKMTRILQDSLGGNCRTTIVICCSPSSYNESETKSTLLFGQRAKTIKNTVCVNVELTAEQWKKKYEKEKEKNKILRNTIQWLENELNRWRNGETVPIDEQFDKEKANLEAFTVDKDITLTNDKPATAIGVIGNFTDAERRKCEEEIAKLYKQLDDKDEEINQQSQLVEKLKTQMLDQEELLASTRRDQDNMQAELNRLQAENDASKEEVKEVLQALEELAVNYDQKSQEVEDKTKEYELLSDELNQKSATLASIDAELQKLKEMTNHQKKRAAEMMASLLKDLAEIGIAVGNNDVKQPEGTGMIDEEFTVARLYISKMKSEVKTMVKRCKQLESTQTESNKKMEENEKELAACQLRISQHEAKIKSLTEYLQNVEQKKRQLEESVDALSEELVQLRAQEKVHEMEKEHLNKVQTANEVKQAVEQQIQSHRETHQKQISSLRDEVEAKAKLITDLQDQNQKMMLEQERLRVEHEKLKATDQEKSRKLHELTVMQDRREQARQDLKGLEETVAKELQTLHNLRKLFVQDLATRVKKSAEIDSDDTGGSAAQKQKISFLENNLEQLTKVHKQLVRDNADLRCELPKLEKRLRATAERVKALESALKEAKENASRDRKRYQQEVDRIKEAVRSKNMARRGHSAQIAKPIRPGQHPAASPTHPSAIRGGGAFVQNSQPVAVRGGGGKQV
ALK-KIF5B (Homo sapiens), sequence (Q9UM73 whole entry, looked up): as the sequence (Q9UM73 whole entry, looked up) above
Serine/threonine-protein kinase SIK2 (Homo sapiens), sequence (Q9H0K1 whole entry, looked up): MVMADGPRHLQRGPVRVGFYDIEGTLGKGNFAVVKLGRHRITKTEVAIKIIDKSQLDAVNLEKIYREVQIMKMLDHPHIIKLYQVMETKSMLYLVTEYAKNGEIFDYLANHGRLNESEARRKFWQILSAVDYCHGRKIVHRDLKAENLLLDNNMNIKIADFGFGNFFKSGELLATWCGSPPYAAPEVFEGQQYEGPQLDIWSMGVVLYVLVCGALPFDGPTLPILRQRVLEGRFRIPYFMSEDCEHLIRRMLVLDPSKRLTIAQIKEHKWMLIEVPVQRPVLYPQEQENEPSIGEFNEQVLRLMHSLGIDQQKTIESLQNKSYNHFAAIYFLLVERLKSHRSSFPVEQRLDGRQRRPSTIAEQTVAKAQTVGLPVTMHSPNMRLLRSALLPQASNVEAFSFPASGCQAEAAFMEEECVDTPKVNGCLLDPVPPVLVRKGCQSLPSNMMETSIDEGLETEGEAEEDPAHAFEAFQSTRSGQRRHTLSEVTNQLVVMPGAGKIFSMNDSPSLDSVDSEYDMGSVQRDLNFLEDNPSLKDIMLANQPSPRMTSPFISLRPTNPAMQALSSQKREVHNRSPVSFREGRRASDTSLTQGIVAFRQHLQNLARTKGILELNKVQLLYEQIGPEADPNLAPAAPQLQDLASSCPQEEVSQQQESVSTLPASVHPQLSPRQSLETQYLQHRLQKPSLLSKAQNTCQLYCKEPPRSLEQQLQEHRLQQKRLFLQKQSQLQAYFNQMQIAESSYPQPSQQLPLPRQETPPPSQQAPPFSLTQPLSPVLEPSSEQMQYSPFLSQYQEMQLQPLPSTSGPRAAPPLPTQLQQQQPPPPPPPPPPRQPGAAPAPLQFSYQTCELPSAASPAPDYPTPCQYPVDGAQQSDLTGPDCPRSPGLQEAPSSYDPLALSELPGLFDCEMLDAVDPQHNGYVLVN
Receptor-type tyrosine-protein kinase FLT3 (Homo sapiens), sequence (P36888 whole entry): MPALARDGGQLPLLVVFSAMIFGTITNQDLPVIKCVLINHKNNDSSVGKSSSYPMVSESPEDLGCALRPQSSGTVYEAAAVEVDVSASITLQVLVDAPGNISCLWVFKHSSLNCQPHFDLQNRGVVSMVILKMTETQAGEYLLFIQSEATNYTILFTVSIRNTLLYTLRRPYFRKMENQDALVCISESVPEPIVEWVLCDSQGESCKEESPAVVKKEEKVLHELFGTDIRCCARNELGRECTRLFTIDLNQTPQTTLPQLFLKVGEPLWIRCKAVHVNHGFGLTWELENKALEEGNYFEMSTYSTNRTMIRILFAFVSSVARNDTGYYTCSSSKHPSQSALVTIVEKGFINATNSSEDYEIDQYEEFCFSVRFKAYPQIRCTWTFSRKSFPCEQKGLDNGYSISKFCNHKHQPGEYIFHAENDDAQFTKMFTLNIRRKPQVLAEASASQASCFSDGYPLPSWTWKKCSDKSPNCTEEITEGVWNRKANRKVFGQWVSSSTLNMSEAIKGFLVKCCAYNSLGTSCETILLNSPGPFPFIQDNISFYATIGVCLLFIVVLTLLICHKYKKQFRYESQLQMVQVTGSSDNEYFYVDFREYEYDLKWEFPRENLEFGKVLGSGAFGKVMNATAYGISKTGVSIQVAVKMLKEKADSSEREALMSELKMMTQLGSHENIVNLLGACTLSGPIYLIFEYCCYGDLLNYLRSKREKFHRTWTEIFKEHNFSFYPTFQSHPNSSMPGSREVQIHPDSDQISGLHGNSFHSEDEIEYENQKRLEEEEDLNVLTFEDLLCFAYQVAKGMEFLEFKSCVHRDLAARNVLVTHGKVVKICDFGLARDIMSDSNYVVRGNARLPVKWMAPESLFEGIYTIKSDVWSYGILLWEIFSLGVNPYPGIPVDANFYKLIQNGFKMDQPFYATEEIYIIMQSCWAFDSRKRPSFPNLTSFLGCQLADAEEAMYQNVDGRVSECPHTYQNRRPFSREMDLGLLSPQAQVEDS

IC50 [1]: 2.6 nM
Tmax [2]: 4.98 min
Activity (ROS1-GOPC (Homo sapiens)): < 10%
half-life [3]: 35.2 min
Activity [4]: < 10%
Activity [5]: < 10%
Activity [6]: < 10%
Activity [7]: < 10%
Activity [8]: < 10%
Activity (ALK-TPM1 (Homo sapiens)): < 10%
Cmax [9]: 2920 ng/mL
CLint scaled [10]: 33.5 mL/min/kg
Activity [11]: < 10%
Activity (ALK-KLC1 (Homo sapiens)): < 10%
Activity [12]: < 10%
microsomal CLint [13]: 39.4 µL/min/mg
clearance [14]: 32 mL/min/kg
Activity [15]: < 10%
Activity [16]: < 10%
Activity [17]: < 10%
remaining at 0.25 h [18]: 64.6%
Activity (ALK-KIF5B (Homo sapiens)): < 10%
Activity [19]: < 10%
Activity [20]: < 10%
Activity [21]: < 10%
Structure (SMILES): CCc1cccc(CC)c1N1CCn2cc(-c3nc(Nc4ccc(N5CCN(C(C)=O)CC5)cc4OC)nc4[nH]ncc34)cc2C1=O
inhibition in vivo at 30 mg/kg (MDA-MB-468): 21%
